Active and inactive are the calls of the source. The calls are words filed in the database; no cut-off is given here.
Tests used:
[1] = target: Serine/threonine-protein kinase B-raf (Homo sapiens, UniProt P15056); experiment: Inhibition of B-Raf (unknown origin) using MEK1 as substrate measured after 2 hrs by ELISA
[2] = target: Serine/threonine-protein kinase B-raf (Homo sapiens, UniProt P15056, V600E); experiment: Inhibition of B-Raf V600E mutant (unknown origin) using MEK1 as substrate measured after 2 hrs by ELISA
[3] = target: Vascular endothelial growth factor receptor 2 (Homo sapiens, UniProt P35968); experiment: Inhibition of VEGFR2 (unknown origin) using FAM-labelled peptide as substrate pretreated for 10 mins followed by substrate addition measured after 30 mins by caliper mobility shift assay
[4] = test system: HCT-116; experiment: cells; conditions: Homo sapiens, HCT-116, 48 h
Description: Cytotoxicity against human HCT116 cells after 48 hrs by MTT assay

[5] = test system: B16-BL6; experiment: cells; conditions: Mus musculus, B16-BL6, 48 h
Description: Cytotoxicity against mouse B16-BL6 cells after 48 hrs by MTT assay

[6] = target: T1, Receptor-type tyrosine-protein kinase FLT3 (Homo sapiens, UniProt P36888); experiment: Inhibition of FLT3 (unknown origin)
T1 sequence (P36888 whole entry): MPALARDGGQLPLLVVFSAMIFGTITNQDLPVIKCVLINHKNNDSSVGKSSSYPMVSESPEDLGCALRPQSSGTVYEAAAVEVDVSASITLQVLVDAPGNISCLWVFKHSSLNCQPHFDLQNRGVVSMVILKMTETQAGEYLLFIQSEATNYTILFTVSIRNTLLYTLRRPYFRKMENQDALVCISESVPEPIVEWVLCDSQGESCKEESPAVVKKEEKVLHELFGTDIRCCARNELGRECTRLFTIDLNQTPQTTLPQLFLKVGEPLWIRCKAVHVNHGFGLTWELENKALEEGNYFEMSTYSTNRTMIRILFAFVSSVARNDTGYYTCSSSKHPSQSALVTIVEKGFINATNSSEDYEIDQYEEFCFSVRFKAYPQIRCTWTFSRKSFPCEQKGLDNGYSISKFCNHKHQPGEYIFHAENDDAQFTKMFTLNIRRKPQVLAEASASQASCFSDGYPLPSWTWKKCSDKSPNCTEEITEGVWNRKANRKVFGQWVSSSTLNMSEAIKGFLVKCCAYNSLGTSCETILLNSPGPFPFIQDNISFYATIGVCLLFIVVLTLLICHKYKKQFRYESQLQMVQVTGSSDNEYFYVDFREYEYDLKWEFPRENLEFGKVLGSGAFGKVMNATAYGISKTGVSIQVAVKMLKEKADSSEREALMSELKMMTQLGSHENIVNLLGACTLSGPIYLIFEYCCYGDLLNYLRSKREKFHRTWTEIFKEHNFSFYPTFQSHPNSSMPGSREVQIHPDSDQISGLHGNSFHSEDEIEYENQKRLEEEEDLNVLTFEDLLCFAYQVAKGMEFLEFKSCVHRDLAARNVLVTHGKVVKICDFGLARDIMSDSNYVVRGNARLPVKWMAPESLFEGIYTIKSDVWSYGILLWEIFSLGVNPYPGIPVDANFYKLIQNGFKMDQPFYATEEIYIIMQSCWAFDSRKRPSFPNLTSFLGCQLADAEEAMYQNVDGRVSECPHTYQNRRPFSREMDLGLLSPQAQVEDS

[7] = target: Mast/stem cell growth factor receptor Kit (Homo sapiens, UniProt P10721); experiment: Inhibition of c-KIT (unknown origin)
[8] = target: Epidermal growth factor receptor (Homo sapiens, UniProt P00533); experiment: Inhibition of EGFR (unknown origin)
[9] = test system: HUVEC; experiment: Antiangiogenic activity against HUVEC assessed as reduction in tube formation at 0.05 uM after 6 hrs by matrigel based phase contrast microscopic analysis; format: functional, Homo sapiens; design: scale not given: the % may be the effect or the level left
[10] = test system: HUVEC; experiment: Antiangiogenic activity against HUVEC assessed as reduction in tube formation at 0.1 uM after 6 hrs by matrigel based phase contrast microscopic analysis; format: functional, Homo sapiens; design: scale not given: the % may be the effect or the level left

Serine/threonine-protein kinase B-raf (Homo sapiens, UniProt P15056), sequence (P15056 whole entry): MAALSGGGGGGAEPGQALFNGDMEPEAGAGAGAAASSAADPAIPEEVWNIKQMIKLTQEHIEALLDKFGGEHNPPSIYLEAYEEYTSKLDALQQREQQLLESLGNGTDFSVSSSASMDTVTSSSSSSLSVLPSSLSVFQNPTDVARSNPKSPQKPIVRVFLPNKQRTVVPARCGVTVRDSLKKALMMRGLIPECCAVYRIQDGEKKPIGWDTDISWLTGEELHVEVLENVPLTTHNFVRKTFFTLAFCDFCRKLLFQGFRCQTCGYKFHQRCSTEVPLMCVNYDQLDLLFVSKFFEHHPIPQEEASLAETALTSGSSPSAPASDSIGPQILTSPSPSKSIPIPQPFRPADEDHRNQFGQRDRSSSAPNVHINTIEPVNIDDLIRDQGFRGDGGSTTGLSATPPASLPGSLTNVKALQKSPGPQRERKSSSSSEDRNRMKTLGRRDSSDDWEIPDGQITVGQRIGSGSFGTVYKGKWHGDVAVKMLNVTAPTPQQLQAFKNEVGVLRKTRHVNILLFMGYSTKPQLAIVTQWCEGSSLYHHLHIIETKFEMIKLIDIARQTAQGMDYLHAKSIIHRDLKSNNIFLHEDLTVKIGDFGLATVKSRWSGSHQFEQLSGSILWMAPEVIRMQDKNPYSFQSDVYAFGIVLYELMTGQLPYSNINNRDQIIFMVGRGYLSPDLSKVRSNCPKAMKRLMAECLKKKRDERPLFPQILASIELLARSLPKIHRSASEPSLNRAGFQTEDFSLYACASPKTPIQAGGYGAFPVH
Vascular endothelial growth factor receptor 2, sequence (P35968 whole entry): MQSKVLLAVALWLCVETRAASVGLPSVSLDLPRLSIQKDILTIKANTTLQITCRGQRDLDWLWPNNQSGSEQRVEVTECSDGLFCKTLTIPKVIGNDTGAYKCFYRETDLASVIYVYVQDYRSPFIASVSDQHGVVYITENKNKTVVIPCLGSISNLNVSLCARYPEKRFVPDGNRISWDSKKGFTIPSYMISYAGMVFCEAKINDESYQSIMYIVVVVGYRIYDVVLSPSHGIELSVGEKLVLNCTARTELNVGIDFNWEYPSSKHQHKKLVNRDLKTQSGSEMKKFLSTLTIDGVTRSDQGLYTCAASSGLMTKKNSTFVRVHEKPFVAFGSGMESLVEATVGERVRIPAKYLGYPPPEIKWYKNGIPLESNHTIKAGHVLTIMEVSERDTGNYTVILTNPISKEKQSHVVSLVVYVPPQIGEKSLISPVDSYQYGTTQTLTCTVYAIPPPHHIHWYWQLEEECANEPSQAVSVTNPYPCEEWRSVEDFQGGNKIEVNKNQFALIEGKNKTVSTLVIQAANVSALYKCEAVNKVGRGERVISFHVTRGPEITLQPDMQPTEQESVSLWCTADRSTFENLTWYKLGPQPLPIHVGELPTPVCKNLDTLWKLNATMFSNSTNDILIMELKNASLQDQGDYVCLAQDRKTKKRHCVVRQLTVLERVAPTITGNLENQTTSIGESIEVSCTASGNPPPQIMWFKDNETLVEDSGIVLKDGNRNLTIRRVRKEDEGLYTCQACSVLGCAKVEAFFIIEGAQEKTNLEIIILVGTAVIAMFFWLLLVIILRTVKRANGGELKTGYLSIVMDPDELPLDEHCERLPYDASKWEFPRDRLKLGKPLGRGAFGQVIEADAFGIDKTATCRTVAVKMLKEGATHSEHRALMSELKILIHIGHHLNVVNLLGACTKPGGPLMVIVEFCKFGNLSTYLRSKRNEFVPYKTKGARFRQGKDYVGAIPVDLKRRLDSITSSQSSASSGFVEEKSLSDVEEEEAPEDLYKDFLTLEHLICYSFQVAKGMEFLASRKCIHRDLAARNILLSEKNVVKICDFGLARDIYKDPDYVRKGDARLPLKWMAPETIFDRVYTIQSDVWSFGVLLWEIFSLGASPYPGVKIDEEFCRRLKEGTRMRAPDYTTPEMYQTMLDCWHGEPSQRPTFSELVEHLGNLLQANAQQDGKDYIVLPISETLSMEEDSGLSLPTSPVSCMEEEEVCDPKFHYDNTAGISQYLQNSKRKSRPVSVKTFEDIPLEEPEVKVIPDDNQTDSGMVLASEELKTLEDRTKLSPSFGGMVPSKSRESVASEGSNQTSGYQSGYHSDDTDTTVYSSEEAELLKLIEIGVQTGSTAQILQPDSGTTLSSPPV
Mast/stem cell growth factor receptor Kit, sequence (P10721 whole entry): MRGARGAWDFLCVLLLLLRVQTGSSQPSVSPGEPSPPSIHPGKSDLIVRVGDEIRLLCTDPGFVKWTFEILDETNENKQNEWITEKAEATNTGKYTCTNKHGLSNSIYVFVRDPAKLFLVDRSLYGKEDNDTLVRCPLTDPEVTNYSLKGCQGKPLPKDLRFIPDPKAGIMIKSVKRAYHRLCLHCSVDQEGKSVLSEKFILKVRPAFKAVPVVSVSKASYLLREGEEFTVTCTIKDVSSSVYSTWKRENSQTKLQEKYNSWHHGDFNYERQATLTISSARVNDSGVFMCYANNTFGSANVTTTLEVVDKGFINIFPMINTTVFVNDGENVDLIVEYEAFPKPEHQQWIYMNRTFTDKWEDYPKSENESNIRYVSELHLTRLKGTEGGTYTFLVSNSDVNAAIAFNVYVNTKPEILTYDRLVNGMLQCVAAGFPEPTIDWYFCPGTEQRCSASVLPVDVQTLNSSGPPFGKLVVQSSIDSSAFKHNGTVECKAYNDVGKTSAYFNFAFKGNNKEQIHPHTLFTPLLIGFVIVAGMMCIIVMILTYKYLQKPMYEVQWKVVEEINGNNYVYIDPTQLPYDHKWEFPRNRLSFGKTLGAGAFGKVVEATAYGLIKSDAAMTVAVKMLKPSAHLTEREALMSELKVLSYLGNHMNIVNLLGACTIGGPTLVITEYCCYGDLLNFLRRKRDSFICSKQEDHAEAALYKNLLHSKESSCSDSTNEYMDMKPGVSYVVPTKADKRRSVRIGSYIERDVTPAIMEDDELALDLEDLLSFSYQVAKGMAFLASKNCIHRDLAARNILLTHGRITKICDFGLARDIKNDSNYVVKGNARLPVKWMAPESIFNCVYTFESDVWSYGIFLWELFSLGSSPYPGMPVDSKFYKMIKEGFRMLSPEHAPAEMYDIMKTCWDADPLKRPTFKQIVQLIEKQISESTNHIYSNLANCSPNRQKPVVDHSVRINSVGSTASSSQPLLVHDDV
Serine/threonine-protein kinase B-raf (Homo sapiens, UniProt P15056, V600E), sequence (P15056 2-766 V600E limits assumed): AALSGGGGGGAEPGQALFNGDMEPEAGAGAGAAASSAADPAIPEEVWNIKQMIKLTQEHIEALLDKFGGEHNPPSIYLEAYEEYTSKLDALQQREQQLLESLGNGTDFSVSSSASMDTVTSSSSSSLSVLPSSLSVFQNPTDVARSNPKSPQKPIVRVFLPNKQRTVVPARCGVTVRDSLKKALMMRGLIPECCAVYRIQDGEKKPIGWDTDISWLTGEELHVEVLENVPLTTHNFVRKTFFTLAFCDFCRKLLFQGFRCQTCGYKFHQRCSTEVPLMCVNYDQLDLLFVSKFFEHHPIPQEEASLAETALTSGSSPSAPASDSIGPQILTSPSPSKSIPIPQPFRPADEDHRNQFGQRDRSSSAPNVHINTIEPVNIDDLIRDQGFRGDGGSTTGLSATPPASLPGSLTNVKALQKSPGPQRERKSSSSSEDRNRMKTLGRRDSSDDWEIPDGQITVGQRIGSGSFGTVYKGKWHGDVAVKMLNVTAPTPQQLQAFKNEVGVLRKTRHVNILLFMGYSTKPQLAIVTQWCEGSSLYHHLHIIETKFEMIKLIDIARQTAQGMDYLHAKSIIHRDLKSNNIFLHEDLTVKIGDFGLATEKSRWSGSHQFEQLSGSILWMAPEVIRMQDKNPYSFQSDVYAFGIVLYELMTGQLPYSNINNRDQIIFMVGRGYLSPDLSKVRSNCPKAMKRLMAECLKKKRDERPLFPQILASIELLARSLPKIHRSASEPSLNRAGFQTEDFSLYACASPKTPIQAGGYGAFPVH
Epidermal growth factor receptor, sequence (P00533 whole entry): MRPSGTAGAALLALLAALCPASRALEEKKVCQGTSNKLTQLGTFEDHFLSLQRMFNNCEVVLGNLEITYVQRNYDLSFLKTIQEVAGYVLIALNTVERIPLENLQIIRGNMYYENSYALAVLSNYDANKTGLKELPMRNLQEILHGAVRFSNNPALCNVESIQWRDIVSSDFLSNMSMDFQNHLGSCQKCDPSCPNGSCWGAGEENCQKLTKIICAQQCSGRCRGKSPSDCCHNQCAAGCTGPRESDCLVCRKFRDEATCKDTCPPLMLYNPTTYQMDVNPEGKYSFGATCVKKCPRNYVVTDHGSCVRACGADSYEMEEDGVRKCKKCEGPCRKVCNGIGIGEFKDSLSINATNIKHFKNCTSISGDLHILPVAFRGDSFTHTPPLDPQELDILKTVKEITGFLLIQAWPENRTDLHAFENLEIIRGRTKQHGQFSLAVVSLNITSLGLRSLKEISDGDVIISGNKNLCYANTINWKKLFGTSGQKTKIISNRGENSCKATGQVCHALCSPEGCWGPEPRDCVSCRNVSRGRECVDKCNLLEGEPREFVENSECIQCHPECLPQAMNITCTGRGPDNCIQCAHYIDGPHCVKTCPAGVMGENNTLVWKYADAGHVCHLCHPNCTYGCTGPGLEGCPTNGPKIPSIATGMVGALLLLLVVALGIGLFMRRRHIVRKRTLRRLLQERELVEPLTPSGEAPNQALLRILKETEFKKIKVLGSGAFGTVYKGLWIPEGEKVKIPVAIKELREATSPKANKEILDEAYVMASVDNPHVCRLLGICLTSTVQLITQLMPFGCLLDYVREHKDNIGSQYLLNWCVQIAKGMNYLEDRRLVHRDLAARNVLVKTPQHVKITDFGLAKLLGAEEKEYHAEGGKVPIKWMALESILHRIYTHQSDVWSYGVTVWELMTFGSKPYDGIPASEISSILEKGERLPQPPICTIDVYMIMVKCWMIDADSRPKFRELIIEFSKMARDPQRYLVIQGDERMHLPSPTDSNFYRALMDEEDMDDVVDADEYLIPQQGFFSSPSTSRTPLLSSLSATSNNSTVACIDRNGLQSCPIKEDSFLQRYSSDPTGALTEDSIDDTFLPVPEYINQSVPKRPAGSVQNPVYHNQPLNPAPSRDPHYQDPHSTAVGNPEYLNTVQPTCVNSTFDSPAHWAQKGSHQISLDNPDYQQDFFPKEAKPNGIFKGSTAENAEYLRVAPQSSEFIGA

| SMILES | IC50 [1] [nM] | IC50 [2] [nM] | IC50 [3] [nM] | IC50 [4] [nM] | IC50 [5] [nM] | IC50 [6] [nM] | IC50 [7] [nM] | IC50 [8] [nM] | Activity [9] [%] | Activity ([9]; Homo sapiens) | Activity [10] [%] |
| --- | --- | --- | --- | --- | --- | --- | --- | --- | --- | --- | --- |
| CNC(=O)c1ccc(Sc2cccc(NC(=S)Nc3ccc(OC(F)(F)F)cc3)c2)nc1 | 5850 | 7480 | > 10000 | 24500 | 91000 | – | – | – | – | – | – |
| CNC(=O)c1ccc(Sc2ccc(NC(=S)Nc3cccc(C(F)(F)F)c3)cc2)nc1 | 503 | 571 | > 10000 | 25900 | 53100 | – | – | – | – | – | – |
| CNC(=O)c1ccc(Sc2ccc(NC(=O)Nc3cc(C(F)(F)F)cc(C(F)(F)F)c3)cc2)nc1 | 93 | 196 | 508 | 7090 | 45200 | – | – | – | – | – | – |
| CNC(=O)c1ccc(Sc2cccc(NC(=S)Nc3ccc(F)c(F)c3)c2)nc1 | 442 | 539 | 3860 | 35100 | 58200 | – | – | – | – | – | – |
| CNC(=O)c1ccc(Sc2cccc(NC(=S)Nc3ccc(Cl)cc3)c2)nc1 | 791 | 857 | 5990 | 39500 | 67500 | – | – | – | – | – | – |
| CNC(=O)c1ccc(Sc2cccc(NC(=S)Nc3ccc(F)c(C(F)(F)F)c3)c2)nc1 | 69 | 77 | 61 | 18200 | 42400 | – | – | – | – | – | – |
| CNC(=O)c1ccc(Sc2ccc(NC(=S)Nc3ccc(Cl)cc3)cc2)nc1 | 2060 | 1780 | 8660 | 34500 | 69300 | – | – | – | – | – | – |
| CNC(=O)c1ccc(Sc2cccc(NC(=S)Nc3cc(C(F)(F)F)cc(C(F)(F)F)c3)c2)nc1 | 158 | 169 | 887 | 5020 | 54200 | – | – | – | – | – | – |
| CNC(=O)c1ccc(Sc2ccc(NC(=S)Nc3ccc(F)c(F)c3)cc2)nc1 | 810 | 892 | > 10000 | 22200 | 52600 | – | – | – | – | – | – |
| CNC(=O)c1ccc(Sc2ccc(NC(=S)Nc3ccc(OC(F)(F)F)cc3)cc2)nc1 | 9870 | > 10000 | > 10000 | > 100000 | > 100000 | – | – | – | – | – | – |
| CNC(=O)c1ccc(Sc2cccc(NC(=S)Nc3ccc(F)c(Cl)c3)c2)nc1 | 280 | 392 | 4020 | 17300 | > 100000 | – | – | – | – | – | – |
| CNC(=O)c1ccc(Sc2cccc(NC(=S)Nc3ccc(Br)c(C(F)(F)F)c3)c2)nc1 | – | – | 133 | 16500 | > 100000 | – | – | – | – | – | – |

Stronger by IC50 [5], values ahead:

| IC50 [1] [nM] | IC50 [2] [nM] | IC50 [3] [nM] | IC50 [4] [nM] | IC50 [5] [nM] | IC50 [6] [nM] | IC50 [7] [nM] | IC50 [8] [nM] | SMILES | Activity [9] [%] | Activity ([9]; Homo sapiens) | Activity [10] [%] |
| --- | --- | --- | --- | --- | --- | --- | --- | --- | --- | --- | --- |
| 21 | 29 | 84 | 5290 | 24600 | 67 | 535 | > 1000 | CNC(=O)c1ccc(Sc2ccc(NC(=O)Nc3ccc(Cl)c(C(F)(F)F)c3)cc2)nc1 | 100 | – | – |
| 27 | 28 | 46 | 4900 | 23500 | 949 | 701 | > 1000 | CNC(=O)c1ccc(Sc2ccc(NC(=S)Nc3ccc(Cl)c(C(F)(F)F)c3)cc2)nc1 | 100 | – | – |
| 17 | 16 | 63 | 5180 | 19800 | 781 | > 1000 | 596 | CNC(=O)c1ccc(Sc2cccc(NC(=S)Nc3ccc(Cl)c(C(F)(F)F)c3)c2)nc1 | 100 | – | – |
| 973 | 1270 | 6910 | 16100 | 19200 | – | – | – | CNC(=O)c1ccc(Sc2cccc(NC(=S)Nc3cccc(C(F)(F)F)c3)c2)nc1 | – | – | – |
| – | – | 277 | 16600 | 36100 | – | – | – | CNC(=O)c1ccc(Sc2ccc(NC(=S)Nc3cc(C(F)(F)F)cc(C(F)(F)F)c3)cc2)nc1 | – | – | – |
| 33 | 45 | 74 | 6370 | 29300 | – | – | – | CNC(=O)c1ccc(Sc2ccc(NC(=S)Nc3ccc(F)c(C(F)(F)F)c3)cc2)nc1 | – | – | – |
| 48 | 65 | 102 | 5800 | 39600 | – | – | – | CNC(=O)c1ccc(Sc2ccc(NC(=O)Nc3ccc(F)c(C(F)(F)F)c3)cc2)nc1 | – | – | – |
| – | – | – | – | 36500 | – | – | – | CNC(=O)c1cc(Oc2ccc(NC(=O)Nc3ccc(Cl)c(C(F)(F)F)c3)cc2)ccn1 [SORAFENIB] | – | Active | 100 |
